Assays:
large crabgrass = test: Test D large crabgrass; type: in vivo, Digitaria sanguinalis; conditions: Preemergence, 0 to 100 scale
In short: (§1)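 Visual injury ratings, 0 = no injury to 100 = complete control, taken 14 to 21 days after treatment. Test chemicals were in a surfactant-containing non-phytotoxic solvent; preemergence treatments went onto the sandy loam surface of seeded greenhouse pots within one day of sowing.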

pitted morningglory = test: Test D pitted morningglory; type: in vivo, Ipomoea lacunosa; conditions: Preemergence, 0 to 100 scale
In short: as §1

dallisgrass = test: Test D dallisgrass; type: in vivo, Paspalum dilatatum; conditions: Preemergence, 0 to 100 scale
In short: as §1

guineagrass = test: Test D guineagrass; type: in vivo, Panicum maximum; conditions: Preemergence, 0 to 100 scale
In short: as §1

Alexandergrass = test: Test D Alexandergrass; type: in vivo, Brachiaria plantaginea; conditions: Preemergence, 0 to 100 scale
In short: as §1

goosegrass = test: Test D goosegrass; type: in vivo, Eleusine indica; conditions: Preemergence, 0 to 100 scale
In short: as §1

common ragweed = test: Test D common ragweed; type: in vivo, Ambrosia elatior; conditions: Preemergence, 0 to 100 scale
In short: as §1

tall mallow = test: Test D tall mallow; type: in vivo, Malva sylvestris; conditions: Preemergence, 0 to 100 scale
In short: as §1

Green foxtail = test: Test D green foxtail; type: in vivo
In short: as §1

Spanishneedles = test: Test D Spanishneedles; type: in vivo, Bidens bipinnata; conditions: Preemergence, 0 to 100 scale
In short: as §1

chickweed = test: Test E chickweed; type: in vivo, Stellaria media; conditions: Preemergence, Rate 250 g/ha; 0 to 100 scale
sandbur = test: Test D sandbur; type: in vivo, Cenchrus echinatus; conditions: Preemergence, 0 to 100 scale
In short: as §1

purple nutsedge = test: Test D purple nutsedge; type: in vivo, Cyperus rotundus; conditions: Preemergence, 0 to 100 scale
In short: as §1

common groundsel = test: Test D common groundsel; type: in vivo, Senecio vulgaris; conditions: Preemergence, 0 to 100 scale
In short: as §1

common pursiane = test: Test D common purslane; type: in vivo, Portulaca oleracea; conditions: Preemergence, 0 to 100 scale
In short: as §1

surinam grass = test: Test D surinam grass; type: in vivo, Brachiaria decumbens; conditions: Preemergence, 0 to 100 scale
In short: as §1

[1] = Rate 16 g/ha, 0 no injury, 100 complete control
[2] = Rate 32 g/ha, 0 no injury, 100 complete control
[3] = Rate 64 g/ha, 0 no injury, 100 complete control
[4] = Rate 125 g/ha, 0 no injury, 100 complete control
[5] = Rate 64 g/ha, Preemergence; 0 to 100 scale, 0 no injury, 100 complete control
[6] = Rate 125 g/ha, Preemergence; 0 to 100 scale, 0 no injury, 100 complete control

Compound: C=CCn1c(=O)on(C(=O)N(c2ccc(Cl)cc2)C(C)C)c1=O [Compound 105]
- Plant response rating Large crabgrass (large crabgrass; [1]): 40
- Plant response rating Large crabgrass (large crabgrass; [2]): 98
- Plant response rating Large crabgrass (large crabgrass; [3]): 100
- Plant response rating Large crabgrass (large crabgrass; [4]): 100
- Plant response rating Large crabgrass (large crabgrass; Rate 250 g/ha): 100
- Plant response rating Large crabgrass (large crabgrass; Rate 500 g/ha): 100
- Plant response rating, P. morninglory (pitted morningglory; [1]): 0
- Plant response rating, P. morninglory (pitted morningglory; [2]): 0
- Plant response rating, P. morninglory (pitted morningglory; [3]): 0
- Plant response rating, P. morninglory (pitted morningglory; [4]): 0
- Plant response rating, P. morninglory (pitted morningglory; Rate 250 g/ha): 0
- Plant response rating, P. morninglory (pitted morningglory; Rate 500 g/ha): 0
- Plant response rating, Dallisgrass (dallisgrass; [1]): 60
- Plant response rating, Dallisgrass (dallisgrass; [2]): 98
- Plant response rating, Dallisgrass (dallisgrass; [3]): 98
- Plant response rating, Dallisgrass (dallisgrass; [4]): 100
- Plant response rating, Dallisgrass (dallisgrass; Rate 250 g/ha): 100
- Plant response rating, Dallisgrass (dallisgrass; Rate 500 g/ha): 100
- Plant response rating, Guineagrass (guineagrass; [1]): 40
- Plant response rating, Guineagrass (guineagrass; [2]): 85
- Plant response rating, Guineagrass (guineagrass; [3]): 98
- Plant response rating, Guineagrass (guineagrass; [4]): 98
- Plant response rating, Guineagrass (guineagrass; Rate 250 g/ha): 100
- Plant response rating, Guineagrass (guineagrass; Rate 500 g/ha): 100
- Plant response rating, Alexandergrass (Alexandergrass; [1]): 0
- Plant response rating, Alexandergrass (Alexandergrass; [2]): 30
- Plant response rating, Alexandergrass (Alexandergrass; [3]): 85
- Plant response rating, Alexandergrass (Alexandergrass; [4]): 98
- Plant response rating, Alexandergrass (Alexandergrass; Rate 250 g/ha): 98
- Plant response rating, Alexandergrass (Alexandergrass; Rate 500 g/ha): 100
- Plant response rating, Goosegrass (goosegrass; [1]): 85
- Plant response rating, Goosegrass (goosegrass; [2]): 98
- Plant response rating, Goosegrass (goosegrass; [3]): 98
- Plant response rating, Goosegrass (goosegrass; [4]): 98
- Plant response rating, Goosegrass (goosegrass; Rate 250 g/ha): 100
- Plant response rating, Goosegrass (goosegrass; Rate 500 g/ha): 100
- Plant response rating, C. ragweed (common ragweed; [1]): 0
- Plant response rating, C. ragweed (common ragweed; [2]): 0
- Plant response rating, C. ragweed (common ragweed; [3]): 0
- Plant response rating, C. ragweed (common ragweed; [4]): 0
- Plant response rating, C. ragweed (common ragweed; Rate 250 g/ha): 0
- Plant response rating, C. ragweed (common ragweed; Rate 500 g/ha): 0
- Plant response rating, Tall Mallow (tall mallow; [1]): 0
- Plant response rating, Tall Mallow (tall mallow; [2]): 0
- Tall Mallow plant response rating (tall mallow; [3]): 0
- Plant response rating, Tall Mallow (tall mallow; [4]): 40
- Tall Mallow plant response rating (tall mallow; [4]): 45
- Plant response rating, Tall Mallow (tall mallow; Rate 250 g/ha): 75
- Plant response rating, Tall Mallow (tall mallow; Rate 500 g/ha): 75
- Plant response rating, Green foxtail (Green foxtail; Preemergence; Rate 16 g/ha; 0 to 100 scale, 0 no injury, 100 complete control): 75
- Plant response rating, Green foxtail (Green foxtail; Preemergence; Rate 32 g/ha; 0 to 100 scale, 0 no injury, 100 complete control): 85
- Plant response rating, Green foxtail (Green foxtail; Rate 16 g/ha; Preemergence; 0 to 100 scale, 0 no injury, 100 complete control): 75
- Plant response rating, Green foxtail (Green foxtail; Rate 32 g/ha; Preemergence; 0 to 100 scale, 0 no injury, 100 complete control): 100
- Green foxtail plant response rating (Green foxtail; [5]): 100
- Plant response rating, Green foxtail (Green foxtail; [5]): 100
- Green foxtail plant response rating (Green foxtail; [6]): 100
- Plant response rating, Green foxtail (Green foxtail; [6]): 100
- Plant response rating, Green foxtail (Green foxtail; Rate 250 g/ha; Preemergence; 0 to 100 scale): 100
- Plant response rating, Green foxtail (Green foxtail; Rate 500 g/ha, Preemergence; 0 to 100 scale): 100
- Plant response rating, Spanishneedles (Spanishneedles; [1]): 0
- Plant response rating, Spanishneedles (Spanishneedles; [2]): 0
- Spanishneedles plant response rating (Spanishneedles; [3]): 0
- Spanishneedles plant response rating (Spanishneedles; [4]): 0
- Plant response rating, Spanishneedles (Spanishneedles; Rate 500 g/ha): 0
- Plant response rating, Chickweed (chickweed): 85
- Plant response rating, Sandbur (sandbur; [1]): 0
- Plant response rating, Sandbur (sandbur; [2]): 0
- Sandbur plant response rating (sandbur; [3]): 0
- Sandbur plant response rating (sandbur; [4]): 0
- Plant response rating, Sandbur (sandbur; Rate 250 g/ha): 98
- Plant response rating, Sandbur (sandbur; Rate 500 g/ha): 100
- Plant response rating, Purple nutsedge (purple nutsedge; [1]): 0
- Plant response rating, Purple nutsedge (purple nutsedge; [2]): 0
- Purple nutsedge plant response rating (purple nutsedge; [3]): 0
- Purple nutsedge plant response rating (purple nutsedge; [4]): 0
- Plant response rating, Purple nutsedge (purple nutsedge; Rate 250 g/ha): 0
- Plant response rating, Purple nutsedge (purple nutsedge; Rate 500 g/ha): 75
- Plant response rating, Com. groundsel (common groundsel; [1]): 0
- Plant response rating, Com. groundsel (common groundsel; [2]): 0
- Plant response rating, Com. groundsel (common groundsel; [3]): 0
- Plant response rating, Com. groundsel (common groundsel; [4]): 0
- Plant response rating, Com. groundsel (common groundsel; Rate 250 g/ha): 0
- Plant response rating, Com. groundsel (common groundsel; Rate 500 g/ha): 80
- Plant response rating, C. purslane (common pursiane; [1]): 0
- Plant response rating, C. purslane (common pursiane; [2]): 0
- Plant response rating, C. purslane (common pursiane; [3]): 0
- Plant response rating, C. purslane (common pursiane; [4]): 0
- Plant response rating, C. purslane (common pursiane; Rate 250 g/ha): 0
- Plant response rating, C. purslane (common pursiane; Rate 500 g/ha): 0
- Plant response rating, Surinam grass (surinam grass; [1]): 0
- Plant response rating, Surinam grass (surinam grass; [2]): 0
- Surinam grass plant response rating (surinam grass; [3]): 0
- Surinam grass plant response rating (surinam grass; [4]): 40
- Plant response rating, Surinam grass (surinam grass; Rate 250 g/ha): 98
- Plant response rating, Surinam grass (surinam grass; Rate 500 g/ha): 100
